# Measured values as given in ChEMBL document CHEMBL4396913, “Synthesis and biological evaluation of hybrid quinolone-based quaternary ammonium antibacterial agents” (Eur J Med Chem, 2019).
# The source made the active and inactive calls. The calls are words filed in the database; no cut-off is given here.
# Key:
# Staphylococcus aureus [1] = assay: Antibacterial activity against Staphylococcus aureus ATCC 6538 cultured in MH medium assessed as reduction in bacterial growth incubated for 48 hrs by microbroth dilution method; assay type: functional; conditions: ATCC 6538, 48 h
# Staphylococcus aureus [2] = assay: Bactericidal activity against Staphylococcus aureus ATCC 6538 cultured in MH medium assessed as reduction in bacterial survival incubated for 48 hrs by microbroth dilution method; assay type: functional; conditions: ATCC 6538, 48 h
# Staphylococcus aureus [3] = assay: Antibacterial activity against methicillin resistant Staphylococcus aureus N315 cultured in MH medium assessed as reduction in bacterial growth incubated for 48 hrs by microbroth dilution method; assay type: functional; conditions: N315, 48 h
# [4] = system: Staphylococcus epidermidis; assay: Antibacterial activity against Staphylococcus epidermidis ATCC 14990 cultured in MH medium assessed as reduction in bacterial growth incubated for 48 hrs by microbroth dilution method; assay type: functional; conditions: ATCC 14990, 48 h
# [5] = system: Staphylococcus epidermidis; assay: Bactericidal activity against Staphylococcus epidermidis ATCC 14990 cultured in MH medium assessed as reduction in bacterial survival incubated for 48 hrs by microbroth dilution method; assay type: functional; conditions: ATCC 14990, 48 h
# Enterococcus hirae [6] = assay: Antibacterial activity against Enterococcus hirae ATCC 1052 cultured in BHI medium assessed as reduction in bacterial growth incubated for 48 hrs by microbroth dilution method; assay type: functional; conditions: ATCC 1052, 48 h
# Enterococcus hirae [7] = assay: Bactericidal activity against Enterococcus hirae ATCC 1052 cultured in BHI medium assessed as reduction in bacterial survival incubated for 48 hrs by microbroth dilution method; assay type: functional; conditions: ATCC 1052, 48 h
# Bacillus spizizenii [8] = assay: Antibacterial activity against Bacillus subtilis ATCC 6633 cultured in MH medium assessed as reduction in bacterial growth incubated for 48 hrs by microbroth dilution method; assay type: functional; conditions: ATCC 6633, 48 h
# Bacillus spizizenii [9] = assay: Bactericidal activity against Bacillus subtilis ATCC 6633 cultured in MH medium assessed as reduction in bacterial survival incubated for 48 hrs by microbroth dilution method; assay type: functional; conditions: ATCC 6633, 48 h
# Escherichia coli [10] = assay: Antibacterial activity against Escherichia coli ATCC 8739 cultured in MH medium assessed as reduction in bacterial growth incubated for 48 hrs by microbroth dilution method; assay type: functional; conditions: ATCC 8739, 48 h
# Escherichia coli [11] = assay: Bactericidal activity against Escherichia coli ATCC 8739 cultured in MH medium assessed as reduction in bacterial survival incubated for 48 hrs by microbroth dilution method; assay type: functional; conditions: ATCC 8739, 48 h
# Pseudomonas aeruginosa [12] = assay: Bactericidal activity against Pseudomonas aeruginosa ATCC 9027 cultured in MH medium assessed as reduction in bacterial survival incubated for 48 hrs by microbroth dilution method; assay type: functional; conditions: ATCC 9027, 48 h
# Proteus vulgaris [13] = assay: Antibacterial activity against Proteus vulgaris NCTC 4635 cultured in MH medium assessed as reduction in bacterial growth incubated for 48 hrs by microbroth dilution method; assay type: functional; conditions: NCTC 4635, 48 h
# Proteus vulgaris [14] = assay: Bactericidal activity against Proteus vulgaris NCTC 4635 cultured in MH medium assessed as reduction in bacterial survival incubated for 48 hrs by microbroth dilution method; assay type: functional; conditions: NCTC 4635, 48 h
# Staphylococcus aureus [15] = assay: Antibacterial activity against methicillin resistant Staphylococcus aureus 6347 cultured in MH medium assessed as reduction in bacterial growth incubated for 48 hrs by microbroth dilution method; assay type: functional; conditions: Staphylococcus aureus, 6347, 48 h
# Staphylococcus aureus [16] = assay: Bactericidal activity against methicillin resistant Staphylococcus aureus 6347 cultured in MH medium assessed as reduction in bacterial survival incubated for 48 hrs by microbroth dilution method; assay type: functional; conditions: Staphylococcus aureus, 6347, 48 h
# Streptococcus pneumoniae [17] = assay: Antibacterial activity against Streptococcus pneumoniae cultured in MH medium assessed as reduction in bacterial growth incubated for 48 hrs by microbroth dilution method; assay type: functional
# Streptococcus pneumoniae [18] = assay: Bactericidal activity against Streptococcus pneumoniae cultured in MH medium assessed as reduction in bacterial survival incubated for 48 hrs by microbroth dilution method; assay type: functional
# Serratia marcescens [19] = assay: Antibacterial activity against Serratia marcescens ATCC 12795 cultured in MH medium assessed as reduction in bacterial growth incubated for 48 hrs by microbroth dilution method; assay type: functional; conditions: ATCC 12795, 48 h
# Serratia marcescens [20] = assay: Bactericidal activity against Serratia marcescens ATCC 12795 cultured in MH medium assessed as reduction in bacterial survival incubated for 48 hrs by microbroth dilution method; assay type: functional; conditions: ATCC 12795, 48 h
# [21] = molecular target: T1, DNA gyrase (Escherichia coli) (UniProt P0AES6+P0AES4); assay: Inhibition of Escherichia coli DNA gyrase super-coiling activity using relaxed pNO1 DNA as substrate assessed as enzyme residual activity at 1 uM incubated for 30 mins by fluorescence assay relative to control; assay type: protein-complex assay
# Escherichia coli [22] = assay: Induction of inner membrane permeabilization in Escherichia coli ATCC 8739 assessed as increase in release of cytoplasmic beta galactosidase using ONPG as substrate at 128 ug/ml incubated for 90 mins compound added with bacterial cells after lag time of about 10 mins by spectrophotometry; assay type: organism-based
# Pseudomonas aeruginosa [23] = assay: Antibiofilm activity against Pseudomonas aeruginosa ATCC 9027 assessed as biofilm formation at antibacterial MIC incubated for 24 hrs compound added prior to bacterial biofilm formation by total biomass crystal violet staining-based method relative to control; assay type: functional
# Staphylococcus aureus [24] = assay: Antibiofilm activity against Staphylococcus aureus ATCC 6538 assessed as biofilm formation at antibacterial MIC incubated for 24 hrs compound added prior to bacterial biofilm formation by total biomass crystal violet staining-based method relative to control; assay type: functional
# Pseudomonas aeruginosa [25] = assay: Antibiofilm activity against Pseudomonas aeruginosa ATCC 9027 assessed as biofilm formation at 0.5 times antibacterial MIC incubated for 24 hrs compound added prior to bacterial biofilm formation by total biomass crystal violet staining-based method relative to control; assay type: functional
# Staphylococcus aureus [26] = assay: Antibiofilm activity against Staphylococcus aureus ATCC 6538 assessed as biofilm formation at 0.5 times antibacterial MIC incubated for 24 hrs compound added prior to bacterial biofilm formation by total biomass crystal violet staining-based method relative to control; assay type: functional
# Pseudomonas aeruginosa [27] = assay: Biofilm degradation activity against Pseudomonas aeruginosa ATCC 9027 assessed as biofilm formation at antibacterial MIC incubated for 24 hrs compound added post-biofilm formation by total biomass crystal violet staining-based method; assay type: functional
# Pseudomonas aeruginosa [28] = assay: Biofilm degradation activity against Pseudomonas aeruginosa ATCC 9027 assessed as biofilm formation at 2 times antibacterial MIC incubated for 24 hrs compound added post-biofilm formation by total biomass crystal violet staining-based method; assay type: functional
# Pseudomonas aeruginosa [29] = assay: Biofilm degradation activity against Pseudomonas aeruginosa ATCC 9027 assessed as biofilm formation at 4 times antibacterial MIC incubated for 24 hrs compound added post-biofilm formation by total biomass crystal violet staining-based method; assay type: functional
# Staphylococcus aureus [30] = assay: Biofilm degradation activity against Staphylococcus aureus ATCC 6538 assessed as biofilm formation at antibacterial MIC incubated for 24 hrs compound added post-biofilm formation by total biomass crystal violet staining-based method; assay type: functional
# Staphylococcus aureus [31] = assay: Biofilm degradation activity against Staphylococcus aureus ATCC 6538 assessed as biofilm formation at 2 times antibacterial MIC incubated for 24 hrs compound added post-biofilm formation by total biomass crystal violet staining-based method; assay type: functional
# Staphylococcus aureus [32] = assay: Biofilm degradation activity against Staphylococcus aureus ATCC 6538 assessed as biofilm formation at 4 times antibacterial MIC incubated for 24 hrs compound added post-biofilm formation by total biomass crystal violet staining-based method; assay type: functional
# Staphylococcus aureus [33] = conditions: ATCC 25923, 10 to 40 uM
# Description: Antibiofilm activity Staphylococcus aureus ATCC 25923 pre-formed mature biofilm assessed as reduction in biofilm viability at 10 to 40 uM incubated for 24 hrs compound added post-biofilm formation by resazurin staining based assay relative to control
# Staphylococcus aureus [34] = conditions: ATCC 25923, 10 to 40 uM; remark: listed apart in the source
# Description: Antibiofilm activity Staphylococcus aureus ATCC 25923 pre-formed mature biofilm assessed as reduction in biofilm biomass at 10 to 40 uM incubated for 24 hrs compound added post biofilm formation by crystal violet staining based assay relative to control
# [35] = Lipophilicity, log k of the compound at 100 ug/ml by micellar electrokinetic chromatography; assay type: physicochemical
# Staphylococcus aureus [36] = assay: Bactericidal activity against methicillin resistant Staphylococcus aureus N315 cultured in MH medium assessed as reduction in bacterial survival incubated for 48 hrs by microbroth dilution method; assay type: functional; conditions: N315, 48 h
# Pseudomonas aeruginosa [37] = assay: Antibacterial activity against Pseudomonas aeruginosa ATCC 9027 cultured in MH medium assessed as reduction in bacterial growth incubated for 48 hrs by microbroth dilution method; assay type: functional; conditions: ATCC 9027, 48 h
# [38] = system: Staphylococcus epidermidis; assay: Antibacterial activity against methicillin resistant Staphylococcus epidermidis ATCC 13199 cultured in MH medium assessed as reduction in bacterial growth incubated for 48 hrs by microbroth dilution method; assay type: functional; conditions: ATCC 13199, 48 h
# [39] = system: Staphylococcus epidermidis; assay: Bactericidal activity against methicillin resistant Staphylococcus epidermidis ATCC 13199 cultured in MH medium assessed as reduction in bacterial survival incubated for 48 hrs by microbroth dilution method; assay type: functional; conditions: ATCC 13199, 48 h
# [40] = molecular target: T1, DNA gyrase (Escherichia coli); assay: Inhibition of Escherichia coli DNA gyrase super-coiling activity using relaxed pNO1 DNA as substrate assessed as enzyme residual activity at 10 uM incubated for 30 mins by fluorescence assay relative to control; assay type: protein-complex assay
# HEK293 [41] = assay: Cytotoxicity against human HEK293 cells assessed as cell viability upto 20 uM incubated for 72 hrs by MTT assay; assay type: cell-based; conditions: hek293, 72 h
# HEK293 [42] = assay: Cytotoxicity against human HEK293 cells assessed as changes in cell morphology upto 20 uM incubated for 72 hrs by MTT assay; assay type: cell-based; conditions: hek293, 72 h
SMILES,MIC (Staphylococcus aureus [1]),MBC (Staphylococcus aureus [2]),MIC (Staphylococcus aureus [3]),MIC [4],MBC [5],MIC (Enterococcus hirae [6]),MIC (Bacillus spizizenii [8]),MBC (Bacillus spizizenii [9]),MIC (Escherichia coli [10]),MBC (Escherichia coli [11]),MBC (Pseudomonas aeruginosa [12]),MIC (Proteus vulgaris [13]),MBC (Proteus vulgaris [14]),MIC (Staphylococcus aureus [15]),MBC (Staphylococcus aureus [16]),MIC (Streptococcus pneumoniae [17]),MIC (Serratia marcescens [19]),MBC (Serratia marcescens [20]),Activity [21],other results
O=C(O)c1cn(C2CC2)c2cc(N3CCNCC3)c(F)cc2c1=O [CIPROFLOXACIN],0.25 µg/mL,0.5 µg/mL,1 µg/mL,0.25 µg/mL,0.25 µg/mL,128 µg/mL,0.032 µg/mL,0.063 µg/mL,0.032 µg/mL,0.032 µg/mL,0.5 µg/mL,0.008 µg/mL,0.008 µg/mL,0.25 µg/mL,0.5 µg/mL,8 µg/mL,0.125 µg/mL,0.125 µg/mL,7%,MBC (Enterococcus hirae [7]): 128 µg/mL; MBC (Streptococcus pneumoniae [18]): > 512 µg/mL; Activity (Escherichia coli [22]): Active; Activity (Pseudomonas aeruginosa [23]): 3%; Activity (Staphylococcus aureus [24]): 3%; Activity (Pseudomonas aeruginosa [25]): 7%; Activity (Staphylococcus aureus [26]): 5%; Activity (Pseudomonas aeruginosa [27]): 76%; Activity (Pseudomonas aeruginosa [28]): 72%; Activity (Pseudomonas aeruginosa [29]): 64%; Activity (Staphylococcus aureus [30]): 21%; Activity (Staphylococcus aureus [31]): 17%; Activity (Staphylococcus aureus [32]): 31%; inhibition (Staphylococcus aureus [33]): Active; inhibition (Staphylococcus aureus [34]): Active
C[C@@H]1CN(c2c(F)c(N)c3c(=O)c(C(=O)O)cn(C4CC4)c3c2F)C[C@H](C)[N+]12CN1C(=N2)C(C(=O)O)=Cc2ccccc21.[Cl-] (stereo partly specified),8 µg/mL,8 µg/mL,32 µg/mL,8 µg/mL,8 µg/mL,> 512 µg/mL,4 µg/mL,4 µg/mL,4 µg/mL,4 µg/mL,64 µg/mL,2 µg/mL,2 µg/mL,32 µg/mL,32 µg/mL,> 512 µg/mL,64 µg/mL,64 µg/mL,73%,log K [35]: -0.07; MBC (Staphylococcus aureus [36]): 128 µg/mL; MIC (Pseudomonas aeruginosa [37]): 64 µg/mL; MIC [38]: 16 µg/mL; MBC [39]: 32 µg/mL; Activity [40]: 35%; Activity (HEK293 [41]): Non-Toxic; Activity (HEK293 [42]): Non-Toxic
